# In US12084472B2 (Ardelyx, Inc., priority 2015, dated 2024):
# Target: T1, human TGR5 (Homo sapiens, UniProt Q8TDU6)
# T1 construct: expressed in transfected cells; host or cells: HEK293
# T1 sequence (Q8TDU6 1-330): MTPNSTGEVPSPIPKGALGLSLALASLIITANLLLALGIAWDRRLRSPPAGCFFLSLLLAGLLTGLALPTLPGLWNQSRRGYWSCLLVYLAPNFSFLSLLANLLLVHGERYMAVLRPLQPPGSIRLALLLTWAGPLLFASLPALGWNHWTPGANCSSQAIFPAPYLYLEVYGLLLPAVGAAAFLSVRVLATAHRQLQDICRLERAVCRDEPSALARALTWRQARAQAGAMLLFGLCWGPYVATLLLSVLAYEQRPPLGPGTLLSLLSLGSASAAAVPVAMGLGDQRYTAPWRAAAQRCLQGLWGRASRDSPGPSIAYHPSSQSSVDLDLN
# Assay: Cell-based TGR5 assay (cAMP generation, HTRF)
# Details: HEK293 cells stably transfected with human TGR5; cAMP by HTRF; 30 minutes at 37° C.; read-out: pEC50 Human TGR5 (converted)
# Summary of the method: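 First, compounds in 3-fold serial dilution were placed in HBSS with 10 mM HEPES pH 7.4 and 0.5 mM IBMX. Next, human TGR5-expressing HEK293 cells were added and incubated 30 min at 37° C. Finally, cAMP was detected by HTRF and pEC50 derived by logistic fitting.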
row,Compound,EC50 [µM]
1,"CN(C[C@H](O)[C@@H](O)[C@H](O)[C@H](O)CO)C(=O)NS(=O)(=O)NCCCCc1cc(Cl)c(COC2(c3cnccc3-c3ccccc3OC3CC3)CC2)cc1Cl (stereo in doubt) [Compound I-194, 1-({4-[2,5-dichloro-4-({1-[4-(2-cyclopropoxyphenyl)pyridin-3-yl]cyclopropoxy}methyl)phenyl]butyl}sulfamoyl)-3-methyl-3-[(2S,3R,4R,5R)-2,3,4,5,6-pentahydroxyhexyl]urea]",< 0.1
2,"Cc1cc(COC2(c3cnccc3-c3ccccc3OC3CC3)CC2)c(Cl)cc1CCCCN [Compound I-166, 4-[5-chloro-4-({1-[4-(2-cyclopropoxyphenyl)pyridin-3-yl]cyclopropoxy}methyl)-2-methylphenyl]butan-1-amine]",< 0.1
3,"CC(CCSc1ccc(Cl)c(COC2(c3cnccc3-c3ccccc3OC3CC3)CC2)c1)C(=O)N(C)C[C@H](O)[C@@H](O)[C@H](O)[C@H](O)CO (stereo partly drawn) [Compound I-689, 4-{[4-chloro-3-({1-[4-(2-cyclopropoxyphenyl)pyridin-3-yl]cyclopropoxy}methyl)phenyl]sulfanyl}-N,2-dimethyl-N-[(2S,3R,4R,5R)-2,3,4,5,6-pentahydroxyhexyl]butanamide]",< 0.1
4,"CCOC(=O)NCCN(CCCCSc1ccc(Cl)c(COC2(c3cnccc3-c3ccccc3OC3CC3)CC2)c1)C(=O)[C@@H](O)[C@@H](O)[C@H](O)[C@@H](O)CO [Compound I-576, ethyl N-{2-[(2S,3S,4R,5S)-N-(4-{[4-chloro-3-({1-[4-(2-cyclopropoxyphenyl)pyridin-3-yl]cyclopropoxy}methyl)phenyl]sulfanyl}butyl)-2,3,4,5,6-pentahydroxyhexanamido]ethyl}carbamate]",< 0.1
5,"CC(CCCNC(=O)[C@@H](O)[C@@H](O)[C@H](O)[C@@H](O)CO)c1ccc(Cl)c(CNC2(c3cnccc3-c3ccccc3OC3CC3)CC2)c1 (stereo partly drawn) [Compound I-278, (2S,3S,4R,5S)-N-(4-{4-chloro-3-[({1-[4-(2-cyclopropoxyphenyl)pyridin-3-yl]cyclopropyl}amino)methyl]phenyl}pentyl)-2,3,4,5,6-pentahydroxyhexanamide]",< 0.1
6,"Cc1ccccc1-c1ccncc1C1(NCc2cc(Cl)ccc2Cl)CC1 [Compound I-6, N-[(2,5-dichlorophenyl)methyl]-1-[4-(2-methylphenyl)pyridin-3-yl]cyclopropan-1-amine]",0.126 to 1
7,"CC(CCSc1ccc(Cl)c(COC2(c3cnccc3-c3ccccc3OC3CC3)CC2)c1)C(=O)NC[C@H](O)[C@@H](O)[C@H](O)[C@H](O)CO (stereo partly drawn) [Compound I-690, 4-{[4-chloro-3-({1-[4-(2-cyclopropoxyphenyl)pyridin-3-yl]cyclopropoxy}methyl)phenyl]sulfanyl}-2-methyl-N-[(2S,3R,4R,5R)-2,3,4,5,6-pentahydroxyhexyl]butanamide]",< 0.1
8,"CCc1ccc(SCCCC(=O)NC[C@H](O)[C@@H](O)[C@H](O)[C@H](O)CO)cc1COC1(c2cnccc2-c2ccccc2OC2CC2)CC1 [Compound I-497, 4-[[3-([l-[4-(2-Cyclopropoxyphenyl)pyridin-3-yl]cyclopropoxy]methyl)-4-ethylphenyl]sulfanyl]-N-[(2S,3R,4R,5R)-2,3,4,5,6-pentahydroxyhexyl]butanamide]",0.126 to 1
9,"CN(C[C@H](O)[C@@H](O)[C@H](O)[C@H](O)CO)C(=O)CCN(CCC(=O)N(C)C[C@H](O)[C@@H](O)[C@H](O)[C@H](O)CO)C(=O)CCCCc1cc(Cl)c(CNC2(c3cnccc3-c3ccccc3OC3CC3)CC2)cc1Cl [Compound I-171, 5-{2,5-dichloro-4-[({1-[4-(2-cyclopropoxyphenyl)pyridin-3-yl]cyclopropyl}amino)methyl]phenyl}-N,N-bis(2-{methyl[(2S,3R,4R,5R)-2,3,4,5,6-pentahydroxyhexyl]carbamoyl}ethyl) pentanamide]",1.26 to 10
10,"CC(CCCC(=O)NCCN1CCN(C(=O)NC[C@H](O)[C@@H](O)[C@H](O)[C@H](O)CO)CC1)c1ccc(Cl)c(CN(C(=O)NC[C@H](O)[C@@H](O)[C@H](O)[C@H](O)CO)C2(c3cnccc3-c3ccccc3OC3CC3)CC2)c1 (stereo partly drawn) [Compound I-372, 4-[2-(5-{4-chloro-3-[(1-{l-[4-(2-cyclopropoxyphenyl)pyridin-3-yl]cyclopropyl}{[(2S,3R,4R,5R)-2,3,4,5,6-pentahydroxyhexyl]carbamoyl}amino)methyl]phenyl}hexanamido)ethyl]-N-[(2S,3R,4R,5R)-2,3,4,5,6-pentahydroxyhexyl]piperazine-1-carboxamide]",1.26 to 10
11,"O=C(NCCOCCSc1ccc(Cl)c(COC2(c3cnccc3-c3ccccc3OC3CC3)CC2)c1)NC[C@H](O)[C@@H](O)[C@H](O)[C@H](O)CO [Compound I-490, 1-[2-(2-[[4-Chloro-3-([1-[4-(2-cyclopropoxyphenyl)pyridin-3-yl]cyclopropoxy]methyl)phenyl]sulfanyl]ethoxy)ethyl]-3-[(2S,3R,4R,5R)-2,3,4,5,6-pentahydroxyhexyl]urea]",< 0.1
12,"O=C(NCCCSc1ccc(Cl)c(CNC2(c3cnccc3-c3ccccc3OC3CC3)CC2)c1)NC[C@H](O)[C@@H](O)[C@H](O)[C@H](O)CO [Compound I-622, 1-[3-({4-chloro-3-[({1-[4-(2-cyclopropoxyphenyl)pyridin-3-yl]cyclopropyl}amino)methyl]phenyl}sulfanyl)propyl]-3-[(2S,3R,4R,5R)-2,3,4,5,6-pentahydroxyhexyl]urea]",< 0.1
13,"O=C([C@@H](O)[C@@H](O)[C@H](O)[C@@H](O)CO)N(CCCSc1ccc(Cl)c(CNC2(c3cnccc3-c3ccccc3OC3CC3)CC2)c1)C1CCOCC1 [Compound I-528, (2S,3S,4R,5S)-N-[3-({4-chloro-3-[({1-[4-(2-cyclopropoxyphenyl)pyridin-3-yl]cyclopropyl}amino)methyl]phenyl}sulfanyl)propyl]-2,3,4,5,6-pentahydroxy-N-(oxan-4-yl)hexanamide]",0.126 to 1
14,"CC(CCCCN(CCS(C)(=O)=O)C(=O)[C@@H](O)[C@@H](O)[C@H](O)[C@@H](O)CO)c1ccc(Cl)c(CNC2(c3cnccc3-c3ccccc3OC3CC3)CC2)c1 (stereo partly drawn) [Compound I-291, (2S,3S,4R,5S)-N-(5-{4-chloro-3-[({1-[4-(2-cyclopropoxyphenyl)pyridin-3-yl]cyclopropyl}amino)methyl]phenyl}hexyl)-2,3,4,5,6-pentahydroxy-N-(2-methanesulfonylethyl)hexanamide]",< 0.1
15,"COCCN(CCCC(C)c1ccc(C)c(CNC2(c3cnccc3-c3ccccc3OC3CC3)CC2)c1)C(=O)[C@@H](O)[C@@H](O)[C@H](O)[C@@H](O)CO (stereo partly drawn) [Compound I-302, (2S,3S,4R,5S)-N-(4-{3-[({1-[4-(2-cyclopropoxyphenyl)pyridin-3-yl]cyclopropyl}amino)methyl]-4-methylphenyl}pentyl)-2,3,4,5,6-pentahydroxy-N-(2-methoxyethyl)hexanamide]",< 0.1
16,"Fc1ccccc1-c1ccncc1C1(NCc2cc(Cl)ccc2Cl)CC1 [Compound I-17, N-[(2,5-dichlorophenyl)methyl]-1-[4-(2-fluorophenyl)pyridin-3-yl]cyclopropan-1-amine]",1.26 to 10
17,"CC(=O)NCCCCN(CCCSc1ccc(Cl)c(COC2(c3cnccc3-c3ccccc3OC3CC3)CC2)c1)C(=O)[C@@H](O)[C@@H](O)[C@H](O)[C@@H](O)CO [Compound I-579, (2S,3S,4R,5S)-N-(3-{[4-chloro-3-({1-[4-(2-cyclopropoxyphenyl)pyridin-3-yl]cyclopropoxy}methyl)phenyl]sulfanyl}propyl)-N-(4-acetamidobutyl)-2,3,4,5,6-pentahydroxyhexanamide]",< 0.1
18,"COCCNC(=O)N(CCCCc1cc(Cl)c(COC2(c3cnccc3-c3ccccc3OC3CC3)CC2)cc1Cl)C[C@H](O)[C@@H](O)[C@H](O)[C@H](O)CO [Compound I-76, 1-{4-[2,5-dichloro-4-({1-[4-(2-cyclopropoxyphenyl)pyridin-3-yl]cyclopropoxy}methyl)phenyl]butyl}-3-(2-methoxyethyl)-1-[(2S,3R,4R,5R)-2,3,4,5,6-pentahydroxyhexyl]urea]",0.126 to 1
19,"CC(CCCN)c1ccc(Cl)c(CNC2(c3cnccc3-c3ccccc3OC3CC3)CC2)c1 (stereo not drawn) [Compound I-252, N-{[5-(5-aminopentan-2-yl)-2-chlorophenyl]methyl}-1-[4-(2-cyclopropoxyphenyl)pyridin-3-yl]cyclopropan-1-amine]",0.126 to 1
20,"CCOC(=O)NCCN(CCCSc1ccc(Cl)c(COC2(c3cnccc3-c3ccccc3OC3CC3)CC2)c1)C(=O)[C@@H](O)[C@@H](O)[C@H](O)[C@@H](O)CO [Compound I-597, ethyl N-{2-[(2S,3S,4R,5S)-N-(3-{[4-chloro-3-({1-[4-(2-cyclopropoxyphenyl)pyridin-3-yl]cyclopropoxy}methyl)phenyl]sulfanyl}propyl)-2,3,4,5,6-pentahydroxyhexanamido]ethyl}carbamate]",0.126 to 1
21,"CCOC(=O)NCCN(CCCCSc1ccc(Cl)c(CNC2(c3cnccc3-c3ccccc3OC3CC3)CC2)c1)C(=O)[C@@H](O)[C@@H](O)[C@H](O)[C@@H](O)CO [Compound I-572, ethyl N-{2-[(2S,3S,4R,5S)-N-[4-({4-chloro-3-[({1-[4-(2-cyclopropoxyphenyl)pyridin-3-yl]cyclopropyl}amino)methyl]phenyl}sulfanyl)butyl]-2,3,4,5,6-pentahydroxyhexanamido]ethyl}carbamate]",< 0.1
